Key:
lice eggs = test: Time-course in vitro lice egg hatching assay; assay type: in vivo, clothing lice (Pediculus humanus humanus)
[1] = system: Plutella xylostella eggs (Waite strain); test: Effect of added metal ions (FeSO4) on inhibition of Plutella xylostella egg hatching; assay type: in vivo; settings: Table 17
Method: Within 24 hours of collection the following experimental design was chosen. Batches of eggs were exposed to either 10 mM 6,6′-dimethyl-2,2′-dipyridyl or solvent only (methanol) for 2 seconds. All batches of eggs were allowed to air dry for 20 minutes at room temperature. The eggs were then given a 2 second exposure to FeSO4 at either 10, 5 or 1 mM, air dried and put in the incubator at 24° C. and allowed to hatch over the next 6 days. In addition, a positive control of 10 mM 6,6′-dimethyl-2,2′-dipyridyl was set up in which eggs were exposed to this compound for 2 seconds, air dried and placed in the incubator.
Within 24 hours of collection the following experimental design was chosen. Batches of eggs were exposed to 10 mM 5,5′dimethyl-2,2′-dipyridyl or solvent only (methanol) for 2 seconds. All batches of eggs were allowed to air dry for 20 minutes at room temperature. The eggs were then given a 2 second exposure to FeSO4 at 10, 5 or 1 mM, air dried and put in an incubator at 24° C. and allowed to hatch over the next 6 days. In addition, a positive control of 10 mM, 5,5′-dimethyl-2,2′-dipyridyl was set up in which eggs were exposed to this compound for 2 seconds, air dried and placed in the incubator.

B. ovis eggs = test: Egg hatching in Bovicola ovis; assay type: in vivo; settings: 10 mM, 10 eggs per replicate
Method: B. ovis eggs were collected from the wool of sheep that were infested with this parasite. The eggs were collected using forceps and with the aid of a dissecting microscope and placed in 24 well tissue culture plates in duplicate lots of 10 eggs per replicate. The eggs were then exposed to either methanol alone (solvent control) or the test compounds for either 10 minutes or 1 minute or left as untreated controls before being removed from the wells and placed into individual glass vials containing a diet at the base of the tube. The tubes were placed in plastic containers containing a salt solution (to keep humidity constant at 68%) and the containers maintained at a temperature 32° C. The eggs were monitored for hatching over the following 12 days and % hatch inhibition determined in comparison to the controls.

[2] = system: Plutella xylostella eggs (Waite strain); test: Egg hatching of Plutella xylostella
Method: The egg masses were then placed in a humid box at 25 degrees until egg hatch. Control eggs were exposed to absolute methanol as described above. At day 6 post laying the eggs were assessed from the different treatments and the percentage of egg hatch determined relative to the control as shown in Table 9.
Batches of Plutella eggs that were laid on either fine cloth or parafilm were dipped in a specific inhibitor solution for between 2-10 seconds, the excess solution was drained by blotting with dry tissue paper. The egg masses were then placed in a humid box at 25 degrees until egg hatch. Control eggs were exposed to absolute methanol as described above or not treated. At day 6 post laying the eggs were assessed from the different treatments and the percentage of egg hatch determined relative to the controls as shown in Tables 10 and 11.
Batches of Plutella eggs that were laid on fine cloth were dipped in a specific inhibitor solution for approximately 2 seconds, the excess solution was drained by blotting with dry tissue paper. The egg masses were then placed in a humid box at 25 degrees until egg hatch. Control eggs were exposed to absolute methanol as described above or not treated. At day 6 post laying the eggs were assessed from the different treatments and the percentage of egg hatch determined relative to the control as shown in Table 12.
The egg masses were then placed in a humid box at 25 degrees until egg hatch. Control eggs were exposed to absolute ethanol as described above. On day 6 post laying the eggs were assessed from the different treatments and the percentage of egg hatch determined relative to the control.

[3] = system: Helicoverpa armigera eggs (Tatura×Toowoomba strains); test: Egg hatching of Helicoverpa armigera; settings: for % Inhibition: relative to control
Method: Several hundred Helicoverpa armigera eggs (Tatura×Toowoomba strains) were collected, that had been laid on fine mesh cloth over a 24 hour period.
Batches of Helicoverpa eggs were exposed to a specific inhibitor solution for between 2-10 seconds the excess solution drained by blotting with dry tissue paper. The egg masses were then placed in a humid box at 25 degrees until egg hatch. Control eggs were exposed to absolute methanol as described above.

[4] = 10 mM inhibitor alone, (+ve) control
[5] = 10 mM inhibitor followed by 2 second exposure to 1 mM FeSO4
[6] = 10 mM inhibitor followed by 2 second exposure to 5 mM FeSO4
[7] = 10 mM inhibitor followed by 2 second exposure to 10 mM FeSO4
[8] = 10 mM inhibitor followed by 2 second exposure to MEOH
[9] = Table 9, 0.001 mM, dipped 2-10 seconds, day 6 post laying
[10] = Table 9, 0.01 mM, dipped 2-10 seconds, day 6 post laying
[11] = Table 9, 0.1 mM, dipped 2-10 seconds, day 6 post laying
[12] = Table 9, 1 mM, dipped 2-10 seconds, day 6 post laying
[13] = Table 9, 10 mM, dipped 2-10 seconds, day 6 post laying
[14] = Table 10, 0.01 mM, eggs laid on cloth
[15] = Table 10, 0.1 mM, eggs laid on cloth
[16] = Table 10, 1 mM, eggs laid on cloth
[17] = Table 10, 10 mM, eggs laid on cloth
[18] = Table 11, 0.01 mM, eggs laid on parafilm
[19] = Table 11, 0.1 mM, eggs laid on parafilm
[20] = Table 11, 1 mM, eggs laid on parafilm
[21] = Table 14, 1 mM, exposed 2-10 seconds, day 6 post laying
[22] = Table 14, 10 mM, exposed 2-10 seconds, day 6 post laying

Compound: Cc1cccc(-c2cccc(C)n2)n1 [6,6′-dimethyl-2,2′-dipyridyl]
- % Inhibition of lice egg hatching (maximum over the time-course) (lice eggs; 10 mM): 100%
- H (number of eggs successfully hatched) (lice eggs; Table 6, […], per replicate): 0
- Ph (number of eggs partly hatched) (lice eggs; Table 6, […], per replicate): 0
- lice egg hatching (lice eggs; in vivo): completely inhibited
- % Inhibition [1, 4]: 100%
- Number hatched [1, 4]: 0
- Number unhatched [1, 4]: 44
- Number hatched [1, 5]: 33
- Number unhatched [1, 5]: 1
- % Inhibition ([1]; 10 mM inhibitor followed by 2 second exposure to 1 mM FeSO4, relative to the FeSO4 controls): 3%
- Number hatched [1, 6]: 25
- Number unhatched [1, 6]: 0
- % Inhibition ([1]; 10 mM inhibitor followed by 2 second exposure to 5 mM FeSO4, relative to the FeSO4 controls): 0%
- Number hatched [1, 7]: 12
- Number unhatched [1, 7]: 19
- % Inhibition ([1]; 10 mM inhibitor followed by 2 second exposure to 10 mM FeSO4, relative to the FeSO4 controls): 38%
- Number hatched [1, 8]: 3
- Number unhatched [1, 8]: 28
- Number unhatched (B. ovis eggs; 1 minute exposure): 10
- Number unhatched (B. ovis eggs; 10 minute exposure): 10
- Number hatched [2, 9]: 11
- Number unhatched [2, 9]: 6
- % Inhibition ([2]; Table 9, 0.001 mM, relative to control (100% MeOH)): 0%
- Number hatched [2, 10]: 13
- Number unhatched [2, 10]: 7
- % Inhibition ([2]; Table 9, 0.01 mM, relative to control (100% MeOH)): 0%
- Number hatched [2, 11]: 23
- Number unhatched [2, 11]: 29
- % Inhibition ([2]; Table 9, 0.1 mM, relative to control (100% MeOH)): 0%
- Number hatched [2, 12]: 0
- Number unhatched [2, 12]: 26
- % Inhibition ([2]; Table 9, 1 mM, relative to control (100% MeOH)): 100%
- % Inhibition ([2]; Table 9, 1 mM, relative to control (100% MeOH), listed as 6,6′dimethyl-2,2′dipyridyl): strong ovicidal effects
- Number hatched [2, 13]: 0
- Number unhatched [2, 13]: 79
- % Inhibition ([2]; Table 9, 10 mM, relative to control (100% MeOH)): 100%
- % Inhibition ([2]; Table 9, 10 mM, relative to control (100% MeOH), listed as 6,6′dimethyl-2,2′dipyridyl): strong ovicidal effects
- Number hatched [2, 14]: 23
- Number unhatched [2, 14]: 4
- % Inhibition ([2]; Table 10, 0.01 mM, eggs laid on cloth, relative to controls): 12%
- Number hatched [2, 15]: 49
- Number unhatched [2, 15]: 49
- % Inhibition ([2]; Table 10, 0.1 mM, eggs laid on cloth, relative to controls): 0%
- Number hatched [2, 16]: 0
- Number unhatched [2, 16]: 23
- % Inhibition ([2]; Table 10, 1 mM, eggs laid on cloth, relative to controls): 100%
- Number hatched [2, 17]: 0
- Number unhatched [2, 17]: 53
- % Inhibition ([2]; Table 10, 10 mM, eggs laid on cloth, relative to controls): 100%
- Number hatched [2, 18]: 92
- Number unhatched [2, 18]: 4
- % Inhibition ([2]; Table 11, 0.01 mM, eggs laid on parafilm, relative to controls): 0%
- Number hatched [2, 19]: 65
- Number unhatched [2, 19]: 70
- % Inhibition ([2]; Table 11, 0.1 mM, eggs laid on parafilm, relative to controls): 7%
- Number hatched [2, 20]: 0
- Number unhatched [2, 20]: 63
- % Inhibition ([2]; Table 11, 1 mM, eggs laid on parafilm, relative to controls): 100%
- Number hatched ([2]; Table 11, 10 mM, eggs laid on parafilm): 0
- % Inhibition ([2]; Table 11, 10 mM, eggs laid on parafilm, relative to controls): 100%
- % Inhibition ([3]; Table 14, 0.001 mM): 0%
- % Inhibition ([3]; Table 14, 0.01 mM): 0%
- % Inhibition ([3]; Table 14, 0.1 mM): 0%
- Number hatched [3, 21]: 4
- Number unhatched [3, 21]: 140
- % Inhibition ([3]; Table 14, 1 mM): 97%
- % Inhibition ([3]; Table 14, 1 mM, listed as 6,6′dimethyl-2,2′dipyridyl): significantly inhibit egg hatching
- Number hatched [3, 22]: 7
- Number unhatched [3, 22]: 98
- % Inhibition ([3]; Table 14, 10 mM): 94%
- % Inhibition ([3]; Table 14, 10 mM, listed as 6,6′dimethyl-2,2′dipyridyl): significantly inhibit egg hatching
- Number hatched ([3]; Table 15, 0.1 mM): 70
- Number unhatched ([3]; Table 15, 0.1 mM): 0
- Number hatched ([3]; Table 15, 1 mM): 2
- Number unhatched ([3]; Table 15, 1 mM): 61
- Number hatched ([3]; Table 15, 10 mM): 3
- Number unhatched ([3]; Table 15, 10 mM): 48

Reference: patent US20090143419A1, “METHODS AND COMPOSITIONS FOR CONTROLLING ECTOPARASITES” (HATCHTECH PTY LTD, priority 2005, published 2009)
